Laboratory results as given in patent US11241455B2, “Methods of treating disease by metabolic control of T-cell differentiation” (The J. David Gladstone Institutes, a testamentary trust …, priority 2016, dated 2022).

Assays:
Format in all cases: cell-based, mouse
[1] = tested on: differentiating TH17 cells; assay: TH17 differentiation of CD4 naïve T cells (IL17F-RFP/FOXP3-GFP reporter or intracellular staining of IL-17 and FOXP3); conditions: compound added after 24 hours of TH17 differentiation, analyzed on day 6
Method: CD4 naïve T cells (CD4+CD25-CD62^highCD44^low) were obtained from interleukin (IL)-17F-red fluorescent protein (RFP)/FOXP3-green fluorescent protein (GFP) mice, which were characterized previously, or wild-type C57/BL6 mice, by cell sorting. 0.4 million cells were plated into 48 wells coated with anti-mouse CD3 (clone 145-2C11, eBioscience) […] and anti-mouse CD28 (clone 37.51, eBioscience) (1 μg/ml). The differentiation media for these naïve T cells was as follows: 0.5 ng/ml (or indicated) transforming growth factor (TGF) β, 200 U/ml mouse IL-2, 2 μg/ml anti-interferon (IFN) γ and 2 μg/ml anti-mouse IL4 for differentiation into iTreg cells; and 2.5 ng/ml TGFβ, 10 ng/ml mouse IL-1β, 10 ng/ml mouse IL-6, 10 ng/ml mouse IL-23, 2 μg/ml anti-mouse IFNγ, and anti-mouse IL-4 for differentiating into TH17 cells. The cells were supplemented with new medium at day 4. In cases in which small-molecule compounds were present, the fresh medium containing the same concentration of compounds was used. When necessary, the individual metabolite was added into the T-cell culture 6 hours later after initial cell plating. On day 6, the cells were analyzed for IL17F-RFP and FOXP3-GFP or the cells were collected and restimulated for 4-6 hours with PMA, inomycin, and Golgi-stop for intracellular staining in absence of indicated compounds.
To identify small molecules that regulate cell-fate switching of TH17/iTreg cells and to further understand the regulation of the TH17/iTreg balance, 10,000 individual small molecules were phenotypically screened using CD4 naïve T cells from IL-17F-RFP/FOXP3-GFP mice. The naïve T cells were cultured under optimal TH17 differentiation conditions and compounds that could reprogram TH17 differentiation toward iTreg cell fate were identified using the reporter readout. Briefly, after TH17 differentiation for 24 hours, compounds were added to TH17 culture, and the treatment was continued for an additional 5 days before the cells were analyzed for IL17F-RFP and FOXP3-GFP expression by high-throughput fluorescence-activated cell sorting (FACS) (FIG. 5a). […] This effect of reprogrammed differentiation was further confirmed by intracellular immunostaining of IL-17 and FOXP3 (FIG. 1a).

[2] = tested on: FOXP3, Il17, Il17f, and Rorc mRNA in TH17 cells; assay: mRNA expression analysis by qRT-PCR in TH17 cells; conditions: normalized to β-actin
Method: (§1) At the end of differentiation (day 6), T cells were re-stimulated with plate-coated anti-CD3 and anti-CD28 for 5 hours in the absence of any small-molecule compounds or metabolites. Quantitative reverse transcriptase polymerase chain reaction (qRT-PCR) was performed to evaluate mRNA expression of FOXP3, Il17, Il17f, and Rorc. For differentiating TH17 or iTreg cells, cells were collected on day 2.5 or at the indicated time for mRNA expression analysis. The expression was normalized to β-actin.

[3] = tested on: FOXP3 mRNA in iTreg cells; assay: mRNA expression analysis by qRT-PCR in iTreg cells; conditions: normalized to β-actin
Method: as §1

[4] = tested on: differentiating TH17 cells; assay: 15N-α-glutamine flux analysis (transamination) in differentiating TH17 cells
Method: (§2) CD4 naïve T cells, differentiating TH17 or iTreg cells (68 hours) were incubated with fresh media prior to labeling. The cells were then cultured for 4 hours at 37° C. with medium where the glutamine was replaced with the corresponding stable isotope label: 2 mM U-^13C glutamine or 2 mM ^15N-α-glutamine for 4 hours at 37° C. The cells were quickly collected and quickly washed with phosphate buffer saline (PBS), pelleted, and snap frozen in liquid nitrogen. The frozen samples were kept in −80° C. until extraction. Cell extracts were prepared by first adding 80/20 MeOH/H2O at −60° C. to the frozen pellets and collecting the supernatant after centrifugation at 4° C. The extracted samples were analyzed by high-resolution liquid-chromatography-mass spectrometry. Unlabeled glutamine-fed cells were used as background.
(§3) For amino acid profiling: The ultra-high pressure liquid chromatography (U-HPLC) system consisted of a Thermo Fisher Scientific (San Jose, USA) U-HPLC pumping system, coupled to an autosampler and degasser. Chromatographic separation of the intracellular metabolites was achieved by usage of a reversed phase Atlantis® T3 (3 μm, 2.1 mm ID×150 mm) column (Waters, Eschborn, Germany) and by implementation of a gradient elution program. […]

[5] = tested on: differentiating iTreg cells; assay: 15N-α-glutamine flux analysis (transamination) in differentiating iTreg cells
Method: as §2, §3

NOCC(=O)O [AOA, (aminooxy)-acetic acid]
reprogramming of TH17 induction to iTreg cells (IL17F-expressing and FOXP3-expressing cells) [1]: reprogram TH17 induction to iTreg cells in a dose-dependent manner | FOXP3 mRNA expression [2]: promoted transcription of FOXP3 | Il17/Il17f mRNA level ([2]; re-stimulated with anti-CD3 and anti-CD28 for 5 hours): selectively reduced the mRNA level of Il17/Il17f | FOXP3 mRNA expression [3]: promoted transcription of FOXP3 | reduction of total intracellular 15N-α-aspartate ([4]; differentiating TH17 cells fed 2 mM 15N-α-glutamine for 4 hours): 90% | de novo synthesis for several amino acids (15N label incorporation) ([4]; differentiating TH17 cells, 2 mM 15N-α-glutamine for 4 hours): significant decreases | reduction of total intracellular 15N-α-aspartate ([5]; differentiating iTreg cells fed 2 mM 15N-α-glutamine for 4 hours): 75% | de novo synthesis for several amino acids (15N label incorporation) ([5]; differentiating iTreg cells, 2 mM 15N-α-glutamine for 4 hours): significant decreases
